Assay results as given in ChEMBL document CHEMBL4373655, “Aminopyrimidine-galactose hybrids are highly selective galectin-3 inhibitors” (Medchemcomm, 2019).

Test: Solubility of the compound in DMSO at >[…] uM
Type: physicochemical

| Compound | solubility |
| --- | --- |
| CO[C@@H]1O[C@H](CO)[C@H](O)[C@H](OCc2cc(-c3ccc(C)cc3)nc(N)n2)[C@H]1O | Insoluble |
| CO[C@@H]1O[C@H](CO)[C@H](O)[C@H](OCc2cc(-c3cccc(-c4ccccc4)c3)nc(N)n2)[C@H]1O | Insoluble |
| CO[C@@H]1O[C@H](CO)[C@H](O)[C@H](OCc2cc(-c3ccccc3)nc(N)n2)[C@H]1O | Insoluble |
| CO[C@@H]1O[C@H](CO)[C@H](O)[C@H](OCc2cc(-c3ccc(F)cc3)nc(N)n2)[C@H]1O | Insoluble |
| CO[C@@H]1O[C@H](CO)[C@H](O)[C@H](OCc2cc(-c3cccc(Cl)c3)nc(N)n2)[C@H]1O | Insoluble |
| CO[C@@H]1O[C@H](CO)[C@H](O)[C@H](OCc2cc(-c3ccccc3F)nc(N)n2)[C@H]1O | Insoluble |
| CO[C@@H]1O[C@H](CO)[C@H](O)[C@H](OCc2cc(-c3cccc(F)c3)nc(N)n2)[C@H]1O | Insoluble |
| CO[C@@H]1O[C@H](CO)[C@H](O)[C@H](OCc2cc(-c3ccc(Cl)cc3)nc(N)n2)[C@H]1O | Insoluble |
| CO[C@@H]1O[C@H](CO)[C@H](O)[C@H](OCc2cc(-c3ccc(Br)cc3)nc(N)n2)[C@H]1O | Insoluble |
| CO[C@@H]1O[C@H](CO)[C@H](O)[C@H](OCc2cc(-c3ccc(C(C)(C)C)cc3)nc(N)n2)[C@H]1O | Insoluble |
| CO[C@@H]1O[C@H](CO)[C@H](O)[C@H](OCc2cc(-c3ccc4ccccc4c3)nc(N)n2)[C@H]1O | Insoluble |
| CO[C@@H]1O[C@H](CO)[C@H](O)[C@H](OCc2cc(-c3ccc(-c4ccccc4)cc3)nc(N)n2)[C@H]1O | Insoluble |
| CO[C@@H]1O[C@H](CO)[C@H](O)[C@H](OCc2cc(-c3cccc4ccccc34)nc(N)n2)[C@H]1O | Insoluble |
| CO[C@@H]1O[C@H](CO)[C@H](O)[C@H](OCc2cc(-c3cccc(C)c3)nc(N)n2)[C@H]1O | Insoluble |

Test: Solubility of the compound in DMSO up to 900 uM
Type: physicochemical

| Compound | solubility |
| --- | --- |
| CO[C@@H]1O[C@H](CO)[C@H](O)[C@H](OCc2cc(-c3ccc(C)cc3)nc(N)n2)[C@H]1O | Soluble |
| CO[C@@H]1O[C@H](CO)[C@H](O)[C@H](OCc2cc(-c3cccc(-c4ccccc4)c3)nc(N)n2)[C@H]1O | Soluble |
| CO[C@@H]1O[C@H](CO)[C@H](O)[C@H](OCc2cc(-c3ccccc3)nc(N)n2)[C@H]1O | Soluble |
| CO[C@@H]1O[C@H](CO)[C@H](O)[C@H](OCc2cc(-c3ccc(F)cc3)nc(N)n2)[C@H]1O | Soluble |
| CO[C@@H]1O[C@H](CO)[C@H](O)[C@H](OCc2cc(-c3cccc(Cl)c3)nc(N)n2)[C@H]1O | Soluble |
| CO[C@@H]1O[C@H](CO)[C@H](O)[C@H](OCc2cc(-c3ccccc3F)nc(N)n2)[C@H]1O | Soluble |
| CO[C@@H]1O[C@H](CO)[C@H](O)[C@H](OCc2cc(-c3cccc(F)c3)nc(N)n2)[C@H]1O | Soluble |
| CO[C@@H]1O[C@H](CO)[C@H](O)[C@H](OCc2cc(-c3ccc(Cl)cc3)nc(N)n2)[C@H]1O | Soluble |
| CO[C@@H]1O[C@H](CO)[C@H](O)[C@H](OCc2cc(-c3ccc(Br)cc3)nc(N)n2)[C@H]1O | Soluble |
| CO[C@@H]1O[C@H](CO)[C@H](O)[C@H](OCc2cc(-c3ccc(C(C)(C)C)cc3)nc(N)n2)[C@H]1O | Soluble |
| CO[C@@H]1O[C@H](CO)[C@H](O)[C@H](OCc2cc(-c3ccc4ccccc4c3)nc(N)n2)[C@H]1O | Soluble |
| CO[C@@H]1O[C@H](CO)[C@H](O)[C@H](OCc2cc(-c3ccc(-c4ccccc4)cc3)nc(N)n2)[C@H]1O | Soluble |
| CO[C@@H]1O[C@H](CO)[C@H](O)[C@H](OCc2cc(-c3cccc4ccccc34)nc(N)n2)[C@H]1O | Soluble |
| CO[C@@H]1O[C@H](CO)[C@H](O)[C@H](OCc2cc(-c3cccc(C)c3)nc(N)n2)[C@H]1O | Soluble |
